Experimental data published in patent publication US20040029965A1, “Formulations for reducing or eliminating toxicity of enviromental hormones containing ursodeoxycholic acid” (priority 2000, published 2004).

Legend:
C57B1/6J mice [1] = test: Changes in body weight of mice after a single subcutaneous injection of TCDD; type: in vivo; conditions: for Weight (body weight): at sacrifice
Protocol: Male C57B1/6J mice of 5 weeks old having the average weight of 18-22 g which had been bred in CRJ (Charles River in Japan) were purchased and used in this example as experimental animals. Those mice were acclimated under the constant breeding condition, i.e. the temperature of 24±1° C., the humidity of 60±10% and the light and darkness cycle of 12 hours, for one week and thereafter, utilized in the experiment.
The Experimental animals were supplied with Purina powdered feed (purchased from Hae Eun Trade) and supplied with water ad libitum. All the animals were weighed twice a week during experimentation.
(§1) 2,3,7,8-tetrachlorodibenzo-p-dioxin (TCDD) dissolved in toluene (purity of 95% or more as a result of gas chromatography analysis), manufactured by Chem. Services Inc. in USA, was volatilized with nitrogen to obtain powder. The obtained powder was dissolved in a mixed solvent containing acetone and corn oil with a volume ratio of 1:6. The resulting solution each containing 110, 27.5 and 6.9 μg/kg of TCDD was subcutaneously injected to mice at a volume of 5 ml per body weight. […] The mice were supplied with the feed from 10 days before (pre-administration) to 60 days after administration of TCDD (post-administration).
The results are expressed as Mean±Standard Deviation values. For statistical analysis of the body weight, feed and water uptake, biochemical findings, hematological findings and the weight of organ in an acute toxicity test, verification was performed by one way analysis of variance (ANOVA) in case of equal distribution. In case significance was recognized in ANOVA, the Student's t-test was performed in the levels of p<0.05 and p<0.01.

C57B1/6J mice [2] = test: Electron microscopy of testes (cellular microstructures); type: in vivo; conditions: TCDD 27.5 μg/kg + 0.5% by weight of UDCA; FIG. 10
Protocol: as §1
Upon completion of the experiment for 60 days, the experimental animals were fasted for 24 hours and anesthetized with ether. Then, they were abdominally incised and blood was gathered from abdominal vena cava. They were sacrificed by the release of blood. Liver, kidneys, testes and epididymides were extracted and all the extracted organs were weighed. Only the testes were separately kept and observed under optical and electron microscopes. For biochemical finding test, serum was separated from blood with a centrifuge and the separated serum was analyzed with an automated blood biochemical analyzer, Dimension (Dupont, USA). Blood was put to another blood gathering bottle and then, analyzed with an automated blood cell analyzer, Celldyn (Abbott, USA). […]

Structure (SMILES): C[C@H](CCC(=O)O)[C@H]1CC[C@H]2[C@@H]3[C@@H](O)C[C@@H]4C[C@H](O)CC[C@]4(C)[C@H]3CC[C@]12C [UDCA, 3α, 7β-dihydroxy-5β-cholanoic acid]
- body weight (C57B1/6J mice [1]; TCDD 6.9 μg/kg + UDCA 0.25 wt %, 22 days): 23.81 ± 0.43
- body weight (C57B1/6J mice [1]; TCDD 6.9 μg/kg + UDCA 0.25 wt %, 32 days): 24.21 ± 0.47
- body weight (C57B1/6J mice [1]; TCDD 6.9 μg/kg + UDCA 0.25 wt %, 39 days): 25.69 ± 0.45
- body weight (C57B1/6J mice [1]; TCDD 6.9 μg/kg + UDCA 0.25 wt %, 50 days): 27.15 ± 0.46
- body weight (C57B1/6J mice [1]; TCDD 6.9 μg/kg + UDCA 0.25 wt %, 59 days): 27.74 ± 0.48
- Weight (body weight) (C57B1/6J mice [1]; TCDD 6.9 μg/kg + UDCA 0.25 wt %): 24.72 ± 1.39 g
- body weight (C57B1/6J mice [1]; TCDD 6.9 μg/kg + UDCA 0.5 wt %, 0 day): 19.97 ± 0.28
- body weight (C57B1/6J mice [1]; TCDD 6.9 μg/kg + UDCA 0.5 wt %, 12 days): 21.81 ± 0.32
- body weight (C57B1/6J mice [1]; TCDD 6.9 μg/kg + UDCA 0.5 wt %, 22 days): 23.26 ± 0.37
- body weight (C57B1/6J mice [1]; TCDD 6.9 μg/kg + UDCA 0.5 wt %, 32 days): 24.28 ± 0.50
- body weight (C57B1/6J mice [1]; TCDD 6.9 μg/kg + UDCA 0.5 wt %, 39 days): 25.22 ± 0.49
- body weight (C57B1/6J mice [1]; TCDD 6.9 μg/kg + UDCA 0.5 wt %, 50 days): 27.15 ± 0.49
- body weight (C57B1/6J mice [1]; TCDD 6.9 μg/kg + UDCA 0.5 wt %, 59 days): 27.06 ± 0.56
- Weight (body weight) (C57B1/6J mice [1]; TCDD 6.9 μg/kg + UDCA 0.5 wt %): 24.19 ± 1.38 g
- body weight (C57B1/6J mice [1]; TCDD 27.5 μg/kg + UDCA 0.125 wt %, 0 day): 19.80 ± 0.25
- body weight (C57B1/6J mice [1]; TCDD 27.5 μg/kg + UDCA 0.125 wt %, 12 days): 22.04 ± 0.26
- body weight (C57B1/6J mice [1]; TCDD 27.5 μg/kg + UDCA 0.125 wt %, 22 days): 23.59 ± 0.28
- body weight (C57B1/6J mice [1]; TCDD 27.5 μg/kg + UDCA 0.125 wt %, 32 days): 24.17 ± 0.33
- body weight (C57B1/6J mice [1]; TCDD 27.5 μg/kg + UDCA 0.125 wt %, 39 days): 25.48 ± 0.36
- body weight (C57B1/6J mice [1]; TCDD 27.5 μg/kg + UDCA 0.125 wt %, 50 days): 26.63 ± 0.28
- body weight (C57B1/6J mice [1]; TCDD 27.5 μg/kg + UDCA 0.125 wt %, 59 days): 26.93 ± 0.34
- Weight (body weight) (C57B1/6J mice [1]; TCDD 27.5 μg/kg + UDCA 0.125 wt %): 24.58 ± 1.07 g
- body weight (C57B1/6J mice [1]; TCDD 27.5 μg/kg + UDCA 0.25 wt %, 0 day): 19.96 ± 0.30
- body weight (C57B1/6J mice [1]; TCDD 27.5 μg/kg + UDCA 0.25 wt %, 12 days): 22.22 ± 0.29
- body weight (C57B1/6J mice [1]; TCDD 27.5 μg/kg + UDCA 0.25 wt %, 22 days): 23.56 ± 0.37
- body weight (C57B1/6J mice [1]; TCDD 27.5 μg/kg + UDCA 0.25 wt %, 32 days): 24.34 ± 0.38
- body weight (C57B1/6J mice [1]; TCDD 27.5 μg/kg + UDCA 0.25 wt %, 39 days): 25.38 ± 0.37
- body weight (C57B1/6J mice [1]; TCDD 27.5 μg/kg + UDCA 0.25 wt %, 50 days): 26.94 ± 0.50
- body weight (C57B1/6J mice [1]; TCDD 27.5 μg/kg + UDCA 0.25 wt %, 59 days): 27.27 ± 0.51
- Weight (body weight) (C57B1/6J mice [1]; TCDD 27.5 μg/kg + UDCA 0.25 wt %): 24.62 ± 1.44 g
- body weight (C57B1/6J mice [1]; TCDD 27.5 μg/kg + UDCA 0.5 wt %, 0 day): 19.08 ± 0.20
- body weight (C57B1/6J mice [1]; TCDD 27.5 μg/kg + UDCA 0.5 wt %, 12 days): 21.09 ± 0.32
- body weight (C57B1/6J mice [1]; TCDD 27.5 μg/kg + UDCA 0.5 wt %, 22 days): 22.52 ± 0.33
- body weight (C57B1/6J mice [1]; TCDD 27.5 μg/kg + UDCA 0.5 wt %, 32 days): 23.33 ± 0.32
- body weight (C57B1/6J mice [1]; TCDD 27.5 μg/kg + UDCA 0.5 wt %, 39 days): 24.07 ± 0.34
- body weight (C57B1/6J mice [1]; TCDD 27.5 μg/kg + UDCA 0.5 wt %, 50 days): 25.31 ± 0.43
- body weight (C57B1/6J mice [1]; TCDD 27.5 μg/kg + UDCA 0.5 wt %, 59 days): 24.52 ± 0.42
- Weight (body weight) (C57B1/6J mice [1]; TCDD 27.5 μg/kg + UDCA 0.5 wt %): 22.15 ± 1.14 g
- body weight (C57B1/6J mice [1]; TCDD 110.0 μg/kg + UDCA 0.125 wt %, 0 day): 19.48 ± 0.29
- body weight (C57B1/6J mice [1]; TCDD 110.0 μg/kg + UDCA 0.125 wt %, 12 days): 19.40 ± 0.40
- body weight (C57B1/6J mice [1]; TCDD 110.0 μg/kg + UDCA 0.125 wt %, 22 days): 18.44 ± 0.87
- body weight (C57B1/6J mice [1]; TCDD 110.0 μg/kg + UDCA 0.125 wt %, 32 days): 12.61
- Weight (body weight) (C57B1/6J mice [1]; TCDD 110.0 μg/kg + UDCA 0.125 wt %): 15.93 g
- body weight (C57B1/6J mice [1]; TCDD 110.0 μg/kg + UDCA 0.25 wt %, 0 day): 19.65 ± 0.44
- body weight (C57B1/6J mice [1]; TCDD 110.0 μg/kg + UDCA 0.25 wt %, 12 days): 20.64 ± 0.50
- body weight (C57B1/6J mice [1]; TCDD 110.0 μg/kg + UDCA 0.25 wt %, 22 days): 19.69 ± 1.03
- body weight (C57B1/6J mice [1]; TCDD 110.0 μg/kg + UDCA 0.25 wt %, 32 days): 18.78 ± 1.14
- body weight (C57B1/6J mice [1]; TCDD 110.0 μg/kg + UDCA 0.25 wt %, 39 days): 14.26
- body weight (C57B1/6J mice [1]; TCDD 110.0 μg/kg + UDCA 0.25 wt %, 50 days): 14.85
- body weight (C57B1/6J mice [1]; TCDD 110.0 μg/kg + UDCA 0.25 wt %, 59 days): 17.10
- Weight (body weight) (C57B1/6J mice [1]; TCDD 110.0 μg/kg + UDCA 0.25 wt %): 18.53 ± 3.79 g
- body weight (C57B1/6J mice [1]; TCDD 110.0 μg/kg + UDCA 0.5 wt %, 0 day): 19.71 ± 0.14
- body weight (C57B1/6J mice [1]; TCDD 110.0 μg/kg + UDCA 0.5 wt %, 12 days): 20.52 ± 0.32
- body weight (C57B1/6J mice [1]; TCDD 110.0 μg/kg + UDCA 0.5 wt %, 22 days): 21.15 ± 0.82
- body weight (C57B1/6J mice [1]; TCDD 110.0 μg/kg + UDCA 0.5 wt %, 32 days): 20.76 ± 1.04
- body weight (C57B1/6J mice [1]; TCDD 110.0 μg/kg + UDCA 0.5 wt %, 39 days): 19.81 ± 1.37
- body weight (C57B1/6J mice [1]; TCDD 110.0 μg/kg + UDCA 0.5 wt %, 50 days): 18.19 ± 1.80
- body weight (C57B1/6J mice [1]; TCDD 110.0 μg/kg + UDCA 0.5 wt %, 59 days): 18.53 ± 1.59
- heads of sperms, electron microphotograph (C57B1/6J mice [2]): Normal shapes of sperm heads were retained
